This experiment deals with CD2F1 mice, L1210 leukemia ip, survival T/C. Briefly: NCI In Vivo Anticancer Drug Screen. Data for tumor model L1210 Leukemia (intraperitoneal) in CD2F1 (CDF1) mice. The conditions noted are these: higher = longer survival. The procedure, abridged: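 Antitumor effect is scored in animals hosting a serially transplanted tumor. Values compare compound-dosed animals against vehicle-only controls as a simple quotient.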

Setting [1] is: endpoint: mean survival time, dose: 100.0 mg/kg/injection, schedule: Q04DX003 (ip), vehicle: saline with Tween-80.
Setting [2] is: endpoint: mean survival time, dose: 200.0 mg/kg/injection, schedule: Q04DX003 (ip), vehicle: saline with Tween-80.
[3] abbreviates: endpoint: mean survival time, dose: 100.0 mg/kg/injection, schedule: Q04DX002 (ip), vehicle: saline with Tween-80.
Where [4] appears, read: endpoint: mean survival time, dose: 200.0 mg/kg/injection, schedule: Q04DX002 (ip), vehicle: saline with Tween-80.
[5] abbreviates: endpoint: mean survival time, dose: 400.0 mg/kg/injection, schedule: Q04DX002 (ip), vehicle: saline with Tween-80.
Setting [6] is: endpoint: mean survival time, dose: 100.0 mg/kg/injection, schedule: Q01DX001 (ip), vehicle: saline.
Where [7] appears, read: endpoint: mean survival time, dose: 200.0 mg/kg/injection, schedule: Q01DX001 (ip), vehicle: saline.
Where [8] appears, read: endpoint: mean survival time, dose: 400.0 mg/kg/injection, schedule: Q01DX001 (ip), vehicle: saline.
Where [9] appears, read: endpoint: mean survival time, dose: 100.0 mg/kg/injection, schedule: Q04DX003 (ip), vehicle: saline sonified.
The mark [10] stands for this setting: endpoint: mean survival time, dose: 400.0 mg/kg/injection, schedule: Q04DX003 (ip), vehicle: saline sonified.

Toxic doses and inconclusive results are not listed. Residues, ends and D or L forms follow the SMILES beside them. *: point of attachment. Cbz = O=C(OCc1ccccc1)*; OtBu = CC(C)(C)O*

With `CC1(O)CSC(C)(O)CS1` (configuration not stated), the T/C (endpoint: mean survival time, dose: 6.25 mg/kg/injection, schedule: Q04DX002 (ip), vehicle: saline with Tween-80) is 104 % of control; the T/C (endpoint: mean survival time, dose: 12.5 mg/kg/injection, schedule: Q04DX002 (ip), vehicle: saline with Tween-80) is 100 % of control; the T/C (endpoint: mean survival time, dose: 25.0 mg/kg/injection, schedule: Q04DX002 (ip), vehicle: saline with Tween-80) was 104 % of control.

Consider `O=C1OC(O)C(Br)=C1Br` (configuration not stated), for which the T/C is, setting by setting: (endpoint: mean survival time, dose: 100.0 mg/kg/injection, schedule: Q04DX002 (ip), vehicle: Klucel (hydroxypropylcellulose) (HPC)) 105 % of control; (endpoint: mean survival time, dose: 200.0 mg/kg/injection, schedule: Q04DX002 (ip), vehicle: Klucel (hydroxypropylcellulose) (HPC)) 91 % of control; (endpoint: mean survival time, dose: 400.0 mg/kg/injection, schedule: Q04DX002 (ip), vehicle: Klucel (hydroxypropylcellulose) (HPC)) 89 % of control.

Consider `O=S(c1cc(Cl)ccc1O)c1cc(Cl)ccc1O`, for which the T/C reads like this: under setting [1], 98 % of control; under setting [2], 89 % of control.

Take `CC(Nc1ccccc1)C(=O)N1CCC(Nc2ccccc2)CC1` (configuration not stated): the T/C by setting is: under setting [3], 94 % of control; under setting [4], 94 % of control; under setting [5], 90 % of control.

For the molecule `OC(CC1=NNC(=S)NC1)(C(F)(F)F)C(F)(F)F`, the T/C was 94 % of control (endpoint: mean survival time, dose: 50.0 mg/kg/injection, schedule: Q01DX009 (ip), vehicle: saline with Tween-80) and 89 % of control (endpoint: mean survival time, dose: 100.0 mg/kg/injection, schedule: Q01DX009 (ip), vehicle: saline with Tween-80).

As to `O=P(O)(O)OC1OC(n2cnc3c(NCc4ccc(F)cc4)ncnc32)C(O)C1O` (configuration not stated), the T/C reads like this: (endpoint: median survival time, dose: 12.5 mg/kg/injection, schedule: Q01DX005 (ip), vehicle: saline) 101 % of control; (endpoint: median survival time, dose: 25.0 mg/kg/injection, schedule: Q01DX005 (ip), vehicle: saline) 101 % of control; (endpoint: median survival time, dose: 50.0 mg/kg/injection, schedule: Q01DX005 (ip), vehicle: saline) 92 % of control; (endpoint: median survival time, dose: 100.0 mg/kg/injection, schedule: Q01DX005 (ip), vehicle: saline) 92 % of control; (endpoint: median survival time, dose: 200.0 mg/kg/injection, schedule: Q01DX005 (ip), vehicle: saline) 100 % of control.

As for `OCC(O)C1OC(OC2CCCCC2)C(O)C(O)C1O` (configuration not stated), the T/C is 95 % of control under setting [6], 101 % of control under setting [7] and 96 % of control under setting [8].

For `O=[N+]([O-])c1ccc(N/N=C(\CI)c2ccccc2)c([N+](=O)[O-])c1`, the T/C by setting is: under setting [9], 97 % of control; (endpoint: mean survival time, dose: 200.0 mg/kg/injection, schedule: Q04DX003 (ip), vehicle: saline sonified) 109 % of control; under setting [10], 108 % of control.

Take `CC(=O)Oc1ccc(OC(C)=O)c2c1C(=O)C=CC2=O`: the T/C is 92 % of control (endpoint: mean survival time, dose: 0.78 mg/kg/injection, schedule: Q04DX002 (ip), vehicle: alcohol) and 86 % of control (endpoint: mean survival time, dose: 3.12 mg/kg/injection, schedule: Q04DX002 (ip), vehicle: alcohol).

For `CCC(C)C(NC(=O)OCc1ccccc1)C(=O)NC(C(=O)NC(CCC(=O)OC(C)(C)C)C(=O)OC)C(C)C` (stereo not drawn) (Cbz-Ile-Val-Glu(OtBu)-OMe; configuration not given here), the T/C runs as follows: under setting [9], 88 % of control; under setting [10], 92 % of control.

For `O=S(=O)(OCCOC(c1ccccc1)(c1ccccc1)c1ccccc1)c1ccc(Br)cc1`, the T/C is 94 % of control under setting [1]; 90 % of control under setting [2]; 98 % of control (endpoint: mean survival time, dose: 400.0 mg/kg/injection, schedule: Q04DX003 (ip), vehicle: saline with Tween-80).

Turning to `CC(C)(C)OC(=O)NC(CSC(c1ccccc1)(c1ccccc1)c1ccccc1)C(=O)O` (configuration not stated), the T/C (endpoint: mean survival time, dose: 75.0 mg/kg/injection, schedule: Q01DX001 (ip), vehicle: saline) is 93 % of control.

With `CC(=O)OC1C(OC(C)=O)C(OC(C)=O)C(OC(C)=O)C(OC(C)=O)C1OC(C)=O` (configuration not stated), the T/C runs as follows: under setting [3], 100 % of control; under setting [4], 86 % of control; under setting [5], 93 % of control.

For the molecule `c1c(NC2=NCCO2)cc2c3c1CCCN3CCC2`, the T/C under setting [1] is 92 % of control and the T/C under setting [2] was 97 % of control.

As for `COC(=O)C(C)C1CCC2C3CCC4CC(OC(C)=O)CCC4(C)C3CC(OC(C)=O)C12C` (configuration not stated), the T/C (endpoint: mean survival time, dose: 100.0 mg/kg/injection, schedule: Q01DX001 (ip), vehicle: saline with Tween-80) was 95 % of control; the T/C (endpoint: mean survival time, dose: 200.0 mg/kg/injection, schedule: Q01DX001 (ip), vehicle: saline with Tween-80) was 103 % of control; the T/C (endpoint: mean survival time, dose: 400.0 mg/kg/injection, schedule: Q01DX001 (ip), vehicle: saline with Tween-80) is 94 % of control.

With `CCC(C)(O)C(C)=O` (configuration not stated), the T/C was 98 % of control (endpoint: mean survival time, dose: 12.5 mg/kg/injection, schedule: Q01DX009 (ip), vehicle: Klucel (hydroxypropylcellulose) (HPC)); 92 % of control (endpoint: mean survival time, dose: 25.0 mg/kg/injection, schedule: Q01DX009 (ip), vehicle: Klucel (hydroxypropylcellulose) (HPC)); 98 % of control (endpoint: mean survival time, dose: 50.0 mg/kg/injection, schedule: Q01DX009 (ip), vehicle: Klucel (hydroxypropylcellulose) (HPC)); 98 % of control (endpoint: mean survival time, dose: 100.0 mg/kg/injection, schedule: Q01DX009 (ip), vehicle: Klucel (hydroxypropylcellulose) (HPC)); 105 % of control (endpoint: mean survival time, dose: 200.0 mg/kg/injection, schedule: Q01DX009 (ip), vehicle: Klucel (hydroxypropylcellulose) (HPC)).

Turning to `CC(=O)OCC1OC(n2ncc3c(N4CC4)ncnc32)C(OC(C)=O)C1OC(C)=O` (configuration not stated), the T/C runs as follows: (endpoint: mean survival time, dose: 25.0 mg/kg/injection, schedule: Q01DX005 (ip), vehicle: distilled water + Tween-80) 97 % of control; (endpoint: mean survival time, dose: 50.0 mg/kg/injection, schedule: Q01DX005 (ip), vehicle: distilled water + Tween-80) 99 % of control; (endpoint: mean survival time, dose: 100.0 mg/kg/injection, schedule: Q01DX005 (ip), vehicle: distilled water + Tween-80) 101 % of control; (endpoint: mean survival time, dose: 200.0 mg/kg/injection, schedule: Q01DX005 (ip), vehicle: distilled water + Tween-80) 100 % of control; (endpoint: mean survival time, dose: 400.0 mg/kg/injection, schedule: Q01DX005 (ip), vehicle: distilled water + Tween-80) 97 % of control.

As for `C[C@]12C[C@H](O)[C@H]3[C@@H](CCC4=CC(=O)CC[C@@]43C)[C@@H]1CC[C@@H]2C(=O)CO`, the T/C runs as follows: (endpoint: median survival time, dose: 25.0 mg/kg/injection, schedule: Q01DX009 (sc), vehicle: steriod suspending solution) 100 % of control; (endpoint: median survival time, dose: 50.0 mg/kg/injection, schedule: Q01DX009 (sc), vehicle: steriod suspending solution) 100 % of control; (endpoint: median survival time, dose: 100.0 mg/kg/injection, schedule: Q01DX009 (sc), vehicle: steriod suspending solution) 100 % of control; (endpoint: median survival time, dose: 200.0 mg/kg/injection, schedule: Q01DX009 (sc), vehicle: steriod suspending solution) 100 % of control.

Regarding `CCCCC(CCC)(CCN)CCCC`, the T/C runs as follows: (endpoint: mean survival time, dose: 3.0 mg/kg/injection, schedule: Q01DX009 (ip), vehicle: saline) 106 % of control; (endpoint: mean survival time, dose: 6.0 mg/kg/injection, schedule: Q01DX009 (ip), vehicle: saline) 98 % of control; (endpoint: mean survival time, dose: 12.0 mg/kg/injection, schedule: Q01DX009 (ip), vehicle: saline) 104 % of control; (endpoint: mean survival time, dose: 12.5 mg/kg/injection, schedule: Q04DX003 (ip), vehicle: saline) 103 % of control.

Regarding `Cc1ccc(NC(=O)N(CCCl)N=O)cc1C`, the T/C reads like this: (endpoint: mean survival time, dose: 1.6 mg/kg/injection, schedule: Q01DX001 (ip), vehicle: other) 115 % of control; (endpoint: mean survival time, dose: 5.7 mg/kg/injection, schedule: Q01DX001 (ip), vehicle: other) 188 % of control; (endpoint: mean survival time, dose: 8.6 mg/kg/injection, schedule: Q01DX001 (ip), vehicle: other) 190 % of control; (endpoint: mean survival time, dose: 13.0 mg/kg/injection, schedule: Q01DX001 (ip), vehicle: other) 204 % of control; (endpoint: mean survival time, dose: 20.0 mg/kg/injection, schedule: Q01DX001 (ip), vehicle: other) 309 % of control; (endpoint: mean survival time, dose: 29.0 mg/kg/injection, schedule: Q01DX001 (ip), vehicle: other) 191 % of control.

Regarding `C=CCN(CC=C)C(=S)Nc1cccc(Br)c1`, the T/C is, setting by setting: (endpoint: mean survival time, dose: 100.0 mg/kg/injection, schedule: Q01DX009 (ip), vehicle: other) 96 % of control; (endpoint: mean survival time, dose: 200.0 mg/kg/injection, schedule: Q01DX009 (ip), vehicle: other) 95 % of control; (endpoint: mean survival time, dose: 400.0 mg/kg/injection, schedule: Q01DX009 (ip), vehicle: other) 101 % of control.

Take `Cc1csc(NC(=O)c2ccc(C(=O)Nc3nc(C)cs3)cc2)n1`: the T/C by setting is: under setting [6], 95 % of control; under setting [7], 95 % of control; under setting [8], 92 % of control.

For `CCC(Cc1ccccc1Br)C1=NC(C)(C)CO1` (configuration not stated), the T/C reads like this: (endpoint: mean survival time, dose: 100.0 mg/kg/injection, schedule: Q01DX001 (ip), vehicle: acetone) 96 % of control; (endpoint: mean survival time, dose: 200.0 mg/kg/injection, schedule: Q01DX001 (ip), vehicle: acetone) 98 % of control.

Values taken from PubChem BioAssay AID256 (DTP/NCI, 2004).
